The values that follow are results of earlier work, collected in patent publication US20220315503A1, “METHODS FOR PRODUCING TREATED MANURE” (COMMONWEALTH SCIENTIFIC AND INDUSTRIAL RESEARCH ORGANISATION, priority 2019, published 2022).

In data set [1] the test system is enteric CH4 emission. As to conditions: beef cattle; administered in animal feed.
Data set [2] has as its system enteric CH4 emission. To be noted: sheep.
For data set [3], the system named is enteric CH4 emission. To be noted: dairy cattle.
For data set [4], the system named is production of CH4 in rumen fluid.
For data set [5] the following is noted: initial concentrations 132 to 177 μg/L; 1.5 hours packed-bed detention time.

Read-outs that look alike come from different tables or passages of the source. Bounds are passed on as bounds.

Regarding `O=[N+]([O-])OCCCO` [3NOP, 3-nitrooxypropanol], the “overall CH4 yield of spiked feces” value in the data set with CH4 yield of feces (feces spiked with 200 mg kg^−1 dry matter) is on record as “no significant difference”. Further, the “downstream effect on CH4 emissions of the feces” value in the data set on CH4 yield of feces (inhibitor included in animal diets) was “no significant downstream effect”. Moreover, the “reduction of CH4 emission” value with enteric CH4 emission [1] is listed as 59%. Also, the “reduction in CH4 emissions” value with enteric CH4 emission [2] was 24%; in the data set with enteric CH4 emission [3] it was “up to 60%”.

On to `ClC(Br)Br` [dibromochloromethane], for which the “production of CH4 compared to control in rumen fluid” value in data set [4] (concentration of 1 μM) and in data set [4] (concentrations ≥5 μM) was “inhibit the production of CH4” each time.

Regarding `BrC(Br)Br` [bromoform, tribromomethane], the “reduction (degradation) under anaerobic conditions” value in data set [5] was over 99%. In addition, the “production of CH4 compared to control in rumen fluid” value in data set [4] (concentration of 1 μM) and in data set [4] (concentrations ≥5 μM) was “inhibit the production of CH4” in each case.
